Laboratory results taken from PubChem BioAssay AID248 (DTP/NCI, 2004).
Values joined by “and” are separate entries in the source; they are usually repeats but may differ in a detail not shown here. Equal entries are not always repeated. Toxic doses and inconclusive results are not listed. No stated cut-off is given here; in the data, active means T/C of 150% or more; inactive means T/C below 125%.

Test system: L1210 leukemia ip in BDF1 mice, survival T/C
Experiment: NCI In Vivo Anticancer Drug Screen. Data for tumor model L1210 Leukemia (intraperitoneal) in B6D2F1 (BDF1) mice
Conditions: endpoint: mean survival time, higher = longer survival
How it was run: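 Transplanted-tumor mice were given test agent; controls received vehicle only. Survival readings from the two groups were divided (treated over control).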

[1] = dose: 100.0 mg/kg/injection, schedule: Q01DX001 (ip), vehicle: carboxymethylcellulose (CMC)
[2] = dose: 200.0 mg/kg/injection, schedule: Q01DX001 (ip), vehicle: carboxymethylcellulose (CMC)
[3] = dose: 25.0 mg/kg/injection, schedule: Q01DX001 (ip), vehicle: saline with Tween-80
[4] = dose: 50.0 mg/kg/injection, schedule: Q01DX001 (ip), vehicle: saline with Tween-80
[5] = dose: 100.0 mg/kg/injection, schedule: Q01DX001 (ip), vehicle: saline with Tween-80
[6] = dose: 100.0 mg/kg/injection, schedule: Q04DX002 (ip), vehicle: saline
[7] = dose: 100.0 mg/kg/injection, schedule: Q01DX009 (ip), vehicle: saline with Tween-80
[8] = dose: 200.0 mg/kg/injection, schedule: Q01DX009 (ip), vehicle: saline with Tween-80
[9] = dose: 400.0 mg/kg/injection, schedule: Q01DX009 (ip), vehicle: saline with Tween-80
[10] = dose: 25.0 mg/kg/injection, schedule: Q04DX003 (ip), vehicle: saline
[11] = dose: 50.0 mg/kg/injection, schedule: Q04DX003 (ip), vehicle: saline
[12] = dose: 100.0 mg/kg/injection, schedule: Q04DX003 (ip), vehicle: saline
[13] = dose: 100.0 mg/kg/injection, schedule: Q04DX003 (ip), vehicle: saline with Tween-80
[14] = dose: 200.0 mg/kg/injection, schedule: Q04DX003 (ip), vehicle: saline with Tween-80
[15] = dose: 100.0 mg/kg/injection, schedule: Q01DX001 (ip), vehicle: saline
[16] = dose: 100.0 mg/kg/injection, schedule: Q04DX003 (ip), vehicle: Klucel (hydroxypropylcellulose) (HPC)
[17] = dose: 200.0 mg/kg/injection, schedule: Q01DX001 (ip), vehicle: saline
[18] = dose: 400.0 mg/kg/injection, schedule: Q01DX001 (ip), vehicle: saline
[19] = dose: 400.0 mg/kg/injection, schedule: Q04DX003 (ip), vehicle: Klucel (hydroxypropylcellulose) (HPC)
[20] = dose: 200.0 mg/kg/injection, schedule: Q04DX003 (ip), vehicle: Klucel (hydroxypropylcellulose) (HPC)
[21] = dose: 100.0 mg/kg/injection, schedule: Q04DX002 (ip), vehicle: Klucel (hydroxypropylcellulose) (HPC)
[22] = dose: 200.0 mg/kg/injection, schedule: Q04DX002 (ip), vehicle: Klucel (hydroxypropylcellulose) (HPC)
[23] = dose: 400.0 mg/kg/injection, schedule: Q04DX002 (ip), vehicle: Klucel (hydroxypropylcellulose) (HPC)
[24] = dose: 100.0 mg/kg/injection, schedule: Q01DX009 (ip), vehicle: Klucel (hydroxypropylcellulose) (HPC)
[25] = dose: 200.0 mg/kg/injection, schedule: Q01DX009 (ip), vehicle: Klucel (hydroxypropylcellulose) (HPC)
[26] = dose: 400.0 mg/kg/injection, schedule: Q01DX009 (ip), vehicle: Klucel (hydroxypropylcellulose) (HPC)
[27] = dose: 12.5 mg/kg/injection, schedule: Q01DX009 (ip), vehicle: saline
[28] = dose: 25.0 mg/kg/injection, schedule: Q01DX009 (ip), vehicle: saline
[29] = dose: 50.0 mg/kg/injection, schedule: Q01DX009 (ip), vehicle: saline
[30] = dose: 200.0 mg/kg/injection, schedule: Q04DX003 (ip), vehicle: saline
[31] = dose: 200.0 mg/kg/injection, schedule: Q01DX009 (ip), vehicle: saline

Measured: T/C

CN1C(c2ccco2)NC(=O)C12CCN(Cc1ccccc1)CC2 (centres undefined)
inactive: [1] 101 % of control | [2] 93 % of control

O=c1ccsc2ccccc12
inactive: [3] 103 % of control | [4] 97 % of control | [5] 105 % of control and 92 % of control

CS(=O)(=O)c1nc(Cl)c(Cl)[nH]1
inactive: [5] 100 % of control | dose: 200.0 mg/kg/injection, schedule: Q01DX001 (ip), vehicle: saline with Tween-80 102 % of control | dose: 400.0 mg/kg/injection, schedule: Q01DX001 (ip), vehicle: saline with Tween-80 104 % of control

O=C(O)c1cc2ccccc2cn1
inactive: [6] 102 % of control | dose: 200.0 mg/kg/injection, schedule: Q04DX002 (ip), vehicle: saline 93 % of control

CCCCCCCCC1SC1CCCCCCCCOC(=O)CCCCCCCC1SC1CCCCCCCC (centres undefined)
inactive: [7] 101 % of control | [8] 93 % of control | [9] 91 % of control

CCOC(=O)C(=O)c1c(C)[nH]c(C(=O)OCC)c1C
inactive: [10] 104 % of control | [11] 93 % of control | dose: 100.0 mg/kg/injection, schedule: Q01DX001 (ip), vehicle: Klucel (hydroxypropylcellulose) (HPC) 95 % of control | [12] 98 % of control | dose: 200.0 mg/kg/injection, schedule: Q01DX001 (ip), vehicle: Klucel (hydroxypropylcellulose) (HPC) 97 % of control | dose: 400.0 mg/kg/injection, schedule: Q01DX001 (ip), vehicle: Klucel (hydroxypropylcellulose) (HPC) 101 % of control

CC12CC1(C)C(=O)OC2=O (centres undefined)
inactive: [13] 87 % of control | [14] 92 % of control

COc1ccccc1C[N+](C)(C)C
inactive: dose: 20.0 mg/kg/injection, schedule: Q01DX001 (ip), vehicle: saline 95 % of control | dose: 20.0 mg/kg/injection, schedule: Q01DX009 (ip), vehicle: saline 108 % of control | dose: 40.0 mg/kg/injection, schedule: Q01DX001 (ip), vehicle: saline 97 % of control | dose: 40.0 mg/kg/injection, schedule: Q01DX009 (ip), vehicle: saline 108 % of control | dose: 80.0 mg/kg/injection, schedule: Q01DX001 (ip), vehicle: saline 102 % of control

CCN(CC)CCCC(C)Nc1nccc(/C=C/c2ccc(Cl)cc2)n1 (centres undefined)
inactive: [15] 96 % of control | [16] 90 % of control | [17] 105 % of control | [18] 100 % of control | [19] 94 % of control

N#CC(=C(c1ccccc1)c1ccccc1)c1ccccc1
inactive: [16] 108 % of control | [20] 108 % of control | [19] 106 % of control

O=C1OCC/C1=C/OCCCCCCO/C=C1/CCOC1=O
inactive: [21] 102 % of control | [22] 102 % of control | [23] 91 % of control

CC1(C)N=C(N)N=C(N)N1c1ccc(CCC(=O)CCl)cc1
inactive: [3] 92 % of control | [4] 95 % of control | [5] 95 % of control

CC1(C)CCCC(C)(C)N1
inactive: dose: 50.0 mg/kg/injection, schedule: Q01DX001 (ip), vehicle: saline 94 % of control

C=CCNc1ccc(C)cc1
inactive: dose: 50.0 mg/kg/injection, schedule: Q01DX009 (ip), vehicle: other 92 % of control | dose: 100.0 mg/kg/injection, schedule: Q01DX009 (ip), vehicle: other 104 % of control | dose: 100.0 mg/kg/injection, schedule: Q04DX003 (ip), vehicle: other 100 % of control | dose: 200.0 mg/kg/injection, schedule: Q04DX003 (ip), vehicle: other 109 % of control

CC(=O)SCC(CSC(C)=O)c1nncc2ccccc12
inactive: [15] 95 % of control

O=C1c2ccccc2C(=O)c2c1cccc2S(=O)(=O)O
inactive: [3] 105 % of control | [4] 103 % of control | [5] 105 % of control

COC(=O)c1ccccc1NC(=O)c1ccco1
inactive: [24] 97 % of control | [25] 96 % of control | [26] 91 % of control

c1ccc2c(C(CCN3CCOCC3)(CCN3CCOCC3)CNC3=NCCN3)cccc2c1
inactive: [27] 105 % of control | dose: 25.0 mg/kg/injection, schedule: Q01DX009 (ip), vehicle: saline with Tween-80 103 % of control | [28] 109 % of control | [29] 111 % of control

C=C(Br)CN1CCCC1=O
inactive: dose: 75.0 mg/kg/injection, schedule: Q01DX009 (ip), vehicle: saline 98 % of control | dose: 150.0 mg/kg/injection, schedule: Q01DX009 (ip), vehicle: saline 106 % of control | dose: 300.0 mg/kg/injection, schedule: Q01DX009 (ip), vehicle: saline 114 % of control

CC(C)NC(=O)NS(=O)(=O)c1ccc(N)cc1
inactive: [12] 94 % of control | [30] 103 % of control | dose: 400.0 mg/kg/injection, schedule: Q04DX003 (ip), vehicle: saline 110 % of control

O=C(O)/C(Cc1cnc2ccccc2n1)=N\O
inactive: [7] 104 % of control | [13] 105 % of control | [8] 104 % of control | [14] 101 % of control | [9] 93 % of control | dose: 400.0 mg/kg/injection, schedule: Q04DX003 (ip), vehicle: saline with Tween-80 100 % of control

CN1C(=O)C2C=C(Cl)C1c1ccccc12 (centres undefined)
inactive: dose: 100.0 mg/kg/injection, schedule: Q01DX001 (ip), vehicle: other 102 % of control | dose: 200.0 mg/kg/injection, schedule: Q01DX001 (ip), vehicle: other 94 % of control | dose: 400.0 mg/kg/injection, schedule: Q01DX001 (ip), vehicle: other 110 % of control

CC(C)(C)CC(C)(C)c1ccc(OCCOc2ccc(S(=O)(=O)O)cc2[N+](=O)[O-])cc1
inactive: dose: 100.0 mg/kg/injection, schedule: Q01DX009 (ip), vehicle: saline 105 % of control | [31] 105 % of control | dose: 400.0 mg/kg/injection, schedule: Q01DX009 (ip), vehicle: saline 100 % of control

NNP(=O)(c1ccccc1)c1ccccc1
inactive: [15] 108 % of control | [17] 102 % of control | [18] 102 % of control

CCNCCNCC(Cc1ccccc1)c1ccccc1 (centres undefined)
inactive: dose: 25.0 mg/kg/injection, schedule: Q04DX002 (ip), vehicle: saline 86 % of control | dose: 50.0 mg/kg/injection, schedule: Q04DX002 (ip), vehicle: saline 105 % of control | [6] 93 % of control and 92 % of control

COc1c(NC(=O)CC(C)=O)cccc1[N+](=O)[O-]
inactive: [24] 103 % of control | [21] 92 % of control | [25] 101 % of control | [22] 92 % of control | [26] 98 % of control | [23] 101 % of control

O=C(C(=O)c1cc(Br)ccc1O)c1cc(Br)ccc1O
inactive: [24] 96 % of control | [16] 93 % of control | [25] 100 % of control | [20] 97 % of control | [26] 94 % of control | [19] 95 % of control

C=CCN(C(=O)OCC)P(=O)(OCC)OCC
inactive: [27] 102 % of control | dose: 12.5 mg/kg/injection, schedule: Q04DX003 (ip), vehicle: saline 106 % of control | [28] 112 % of control | [10] 106 % of control | [29] 112 % of control | [11] 105 % of control | [12] 112 % of control | [31] 112 % of control | [30] 98 % of control

O=S1OCC=CCO1
inactive: dose: 50.0 mg/kg/injection, schedule: Q01DX001 (ip), vehicle: carboxymethylcellulose (CMC) 108 % of control | [1] 114 % of control | [2] 105 % of control
